The results in this text go back to patent US4820695A, “C-20-dihydro-deoxy-(cyclic amino)-derivatives of macrolide antibiotics” (priority 1987, dated 1989).

As a reminder, the pKa is the negative logarithm of the acid dissociation constant.

Series [1] relates to Streptococcus pyogenes C203. Briefly: ED50 in mice experimentally infected with S. pyogenes C203 (Table XI). The note with it: doses given 1 and 4 hours postinfection. Type of series: in vivo. The method, then:
The C-20 modified derivatives of this invention have shown in vivo antimicrobial activity against experimentally-induced infections in laboratory animals. When two doses of test compound were administered to mice experimentally infected with S. pyogenes C203, the activity observed was measured as an ED50 value [effective dose in mg/kg to protect 50% of the test animals: see Warren Wick, et al., J. Bacteriol. 81, 233-235 (1961)].
^a mg/kg × 2; doses given 1 and 4 hours postinfection

Series [2] has as its system Escherichia coli EC14. Description: MIC, standard agar-dilution assay (Table IX). Type of series: cell-based. The note with it: read-out: MIC.
The test system of series [3] is Streptococcus Group D X66. Briefly: MIC, standard agar-dilution assay (Table IX). Type of series: cell-based. The note with it: read-out: MIC.
The test system of series [4] is Staphylococcus aureus V41. Briefly: MIC, standard agar-dilution assay (Table IX). Type of series: cell-based. The note with it: Staphylococcus aureus V41, Penicillin-resistant strain, read-out: MIC.
Series [5] deals with Escherichia coli TEM. Briefly: MIC, standard agar-dilution assay (Table IX). It is filed as cell-based. The note with it: read-out: MIC.
Series [6] concerns Haemophilus influenzae 76. Description: MIC, standard agar-dilution assay (Table IX). It is filed as cell-based. The note with it: Haemophilus influenzae 76, Ampicillin-resistant strain, read-out: MIC.
Series [7] concerns Haemophilus influenzae C.L. Briefly: MIC, standard agar-dilution assay (Table IX). The note with it: Ampicillin-sensitive strain, read-out: MIC. Type of series: cell-based.
Series [8] deals with Staphylococcus epidermidis 222. Briefly: MIC, standard agar-dilution assay (Table IX). Type of series: cell-based. The note with it: read-out: MIC.
Series [9] concerns Streptococcus Group D 2041. Briefly: MIC, standard agar-dilution assay (Table IX). It is filed as cell-based. The note with it: GROUPD2041, read-out: MIC.
For series [10], the system named is Escherichia coli N10. Briefly: MIC, standard agar-dilution assay (Table IX). Type of series: cell-based. The note with it: read-out: MIC.
Series [11] has as its system Mycoplasma synoviae 40A. Briefly: MIC, broth-dilution microtiter test (Table X). Type of series: cell-based. The note with it: Mycoplasmopsis synoviae, read-out: MIC. The text has this: (§1) The MIC's in Table X were obtained using conventional broth-dilution microtiter tests.
Series [12] has as its system Pasteurella hemolytica 22C. Description: MIC, broth-dilution microtiter test (Table X). It is filed as cell-based. The note with it: read-out: MIC.
From the text: as §1

In series [13] the test system is Mycoplasma hyopneumoniae S5972. Description: MIC, broth-dilution microtiter test (Table X). Type of series: cell-based. The note with it: Mesomycoplasma hyopneumoniae, read-out: MIC.
From the text: as §1

Series [14] relates to Pasteurella multocida 17E. Description: MIC, broth-dilution microtiter test (Table X). The note with it: Bovine isolate, read-out: MIC. Type of series: cell-based.
From the text: as §1

For series [15], the system named is Streptococcus sp. 19F. Description: MIC, broth-dilution microtiter test (Table X). It is filed as cell-based. The note with it: read-out: MIC.
From the text: as §1

Series [16] concerns Pasteurella multocida 60A. Description: MIC, broth-dilution microtiter test (Table X). Type of series: cell-based. The note with it: Avian isolate, read-out: MIC.
From the text: as §1

The test system of series [17] is Staphylococcus aureus. Description: MIC, broth-dilution microtiter test (Table X). It is filed as cell-based. The note with it: read-out: MIC.
From the text: as §1

Series [18] concerns Mycoplasma hyorhinis 29E. Description: MIC, broth-dilution microtiter test (Table X). It is filed as cell-based. The note with it: read-out: MIC.
From the text: as §1

The subject of series [19] is Mycoplasma gallisepticum 29C. Briefly: MIC, broth-dilution microtiter test (Table X). It is filed as cell-based. The note with it: Mycoplasmoides gallisepticum, read-out: MIC.
From the text: as §1

Series [20] deals with Staphylococcus aureus S13E. Briefly: MIC, standard agar-dilution assay (Table IX). It is filed as cell-based. The note with it: Staphylococcus aureus, S13E.
The nature of series [21]: Titratable groups in 66% aqueous DMF (Tables XIV-XVI). Type of series: physicochemical. The text has this: ^c Run in 66% aqueous DMF
^d Run in 66% aqueous DMF

Series [22] deals with Staphylococcus aureus X400. Briefly: MIC, standard agar-dilution assay (Table IX). It is filed as cell-based. The note with it: Staphylococcus aureus X400, Methicillin-resistant strain, read-out: MIC.
In series [23] the test system is Staphylococcus epidermidis EPI1. Briefly: MIC, standard agar-dilution assay (Table IX). Type of series: cell-based. The note with it: Staphylococcus epidermidis EPI1; agar-dilution; read-out: MIC.
Series [24] deals with Klebsiella X26. Description: MIC, standard agar-dilution assay (Table IX). It is filed as cell-based. The note with it: read-out: MIC.
Series [25] deals with Streptococcus pneumoniae Park I. Briefly: MIC, standard agar-dilution assay (Table IX). It is filed as cell-based. The note with it: Streptococcus pneumoniae Park I; agar-dilution; read-out: MIC.
In series [26] the test system is Staphyloccus aureus X1.1. Description: MIC, standard agar-dilution assay (Table IX). Type of series: cell-based, Staphylococcus aureus. The note with it: Staphylococcus aureus, read-out: MIC.
In series [27] the test system is Streptococcus pyogenes C203. Description: MIC, standard agar-dilution assay (Table IX). Type of series: cell-based. The note with it: read-out: MIC.
[28] abbreviates: Titratable groups (first value).

The structures appear in SMILES notation. In brackets after ≈: the same amount, converted by molar mass. Some results are limits rather than exact numbers.

Consider `CCC1OC(=O)CC(O)C(C)C(OC2OC(C)C(O)C(N(C)C)C2O)C(CCN2CC(C)CC(C)C2)CC(C)C(=O)C=CC(C)=CC1COC1OC(C)C(O)C(OC)C1OC` (racemic) [Compound D35], for which the values for the ED50 in [1] (Oral) and in series [1] (Subcutaneous) were 10.93 mg/kg × 2 and 0.88 mg/kg × 2, respectively.
Turning to `CCC1OC(=O)CC(O)C(C)C(OC2OC(C)C(O)C(N(C)C)C2O)C(CCN2CCCCCC2)CC(C)C(=O)C=CC(C)=CC1COC1OC(C)C(O)C(O)C1OC` (centres unmarked) [Compound L4, 20-DH-DO-20-(hexahydroazepin-1-yl)lactenocin], the MIC is more than 128 µg/mL in [2]; 32 µg/mL (≈ 38 µM) in series [3]; 2 µg/mL (≈ 2.38 µM) in series [4]; more than 128 µg/mL in series [5]; 16 µg/mL (≈ 19 µM) in [6]; 16 µg/mL (≈ 19 µM) in series [7]. The MIC in series [8] was 1 µg/mL (≈ 1.19 µM); in series [9] it was 16 µg/mL (≈ 19 µM); in series [10], more than 128 µg/mL; in series [11], 1.56 µg/mL (≈ 1.85 µM); in series [12], 25 µg/mL (≈ 29.7 µM); in series [13] it was 1.56 µg/mL (≈ 1.85 µM). In addition, the MIC in [14] was determined as 12.5 µg/mL (≈ 14.9 µM); in series [15], 6.25 µg/mL (≈ 7.43 µM); in [16] it was 12.5 µg/mL (≈ 14.9 µM); in series [17] it was 6.25 µg/mL (≈ 7.43 µM); in series [18], 50 µg/mL (≈ 59.4 µM); in series [19], 12.5 µg/mL (≈ 14.9 µM). For the same molecule, the MIC in [20] was 2 µg/mL (≈ 2.38 µM); in [22], 2 µg/mL (≈ 2.38 µM); in series [23], 2 µg/mL (≈ 2.38 µM); in series [24], 16 µg/mL (≈ 19 µM); in [25], 8 µg/mL (≈ 9.51 µM); in series [26], 2 µg/mL (≈ 2.38 µM). The MIC in series [27] was determined as 1 µg/mL (≈ 1.19 µM). Besides, the pKa in series [21] (Titratable groups) was 9.7; in series [21] (setting [28]) it was 8.
Regarding `CCC1OC(=O)CC(O)C(C)C(OC2OC(C)C(O)C(N(C)C)C2O)C(CCN2CCC(N3CCCCC3)CC2)CC(C)C(=O)C=CC(C)=CC1COC1OC(C)C(O)C(OC)C1OC` (centres unmarked) [Compound D13, 20-DH-DO-20-[(4-piperidino)piperidin-1-yl]desmycosin], the MIC in series [2] is more than 128 µg/mL; in series [3] it was 2 µg/mL (≈ 2.16 µM); in [4] it was 1 µg/mL (≈ 1.08 µM); in series [5], more than 128 µg/mL; in series [6], 8 µg/mL (≈ 8.66 µM); in [7] it was 16 µg/mL (≈ 17.3 µM). For the same molecule, the MIC was 0.25 µg/mL (≈ 0.27 µM) in [8]; 2 µg/mL (≈ 2.16 µM) in [9]; more than 128 µg/mL in series [10]; 1.56 µg/mL (≈ 1.69 µM) in [11]; 12.5 µg/mL (≈ 13.5 µM) in [12]; 3.12 µg/mL (≈ 3.38 µM) in series [13]. For the same molecule, the MIC in series [14] was determined as 12.5 µg/mL (≈ 13.5 µM); in [15], 6.25 µg/mL (≈ 6.76 µM); in [16], 12.5 µg/mL (≈ 13.5 µM); in [17] it was 3.12 µg/mL (≈ 3.38 µM); in [18] it was 50 µg/mL (≈ 54.1 µM); in series [19], 6.25 µg/mL (≈ 6.76 µM). In addition, the MIC worked out at 1 µg/mL (≈ 1.08 µM) in series [20]; 1 µg/mL (≈ 1.08 µM) in [22]; 1 µg/mL (≈ 1.08 µM) in [23]; 16 µg/mL (≈ 17.3 µM) in series [24]; 2 µg/mL (≈ 2.16 µM) in [25]; 0.5 µg/mL (≈ 0.541 µM) in series [26]. The MIC in series [27] is 2 µg/mL (≈ 2.16 µM). Besides, the pKa in series [21] (Titratable groups) is 9.2; in series [21] (setting [28]), 6.
